“And” between values parts separate entries of the source, which are not always exact repeats. Equal entries are not always repeated.
Key:
[1] = molar heat capacity at constant pressure; conditions: 101.33 kPa, Crystal
[2] = 293 K; 101.33 kPa; Crystal; X-ray diffraction

[Nb+5].[Nb+5].[O-2].[O-2].[O-2].[O-2].[O-2].[O-2].[O-2].[Sr+2].[Sr+2] [niobium strontium oxide (Nb2Sr2O7)]
molar heat capacity at constant pressure, [1]
Conditions | Relaxation time | Small sample (50 mg) DSC
2 K | 0.006 J/K/mol | –
2.1 K | 0.005 J/K/mol | –
2.2 K | 0.006 J/K/mol | –
2.4 K | 0.007 J/K/mol | –
2.5 K | 0.008 J/K/mol | –
2.7 K | 0.009 J/K/mol | –
2.9 K | 0.01 J/K/mol | –
3.1 K | 0.012 J/K/mol | –
3.2 K | 0.015 J/K/mol | –
3.5 K | 0.017 J/K/mol | –
3.7 K | 0.02 J/K/mol | –
3.9 K | 0.024 J/K/mol | –
4.2 K | 0.03 J/K/mol | –
4.4 K | 0.035 J/K/mol | –
4.7 K | 0.043 J/K/mol | –
5 K | 0.053 J/K/mol | –
5.4 K | 0.064 J/K/mol | –
5.7 K | 0.079 J/K/mol | –
6.1 K | 0.097 J/K/mol | –
6.5 K | 0.12 J/K/mol | –
6.9 K | 0.15 J/K/mol | –
7.4 K | 0.19 J/K/mol | –
7.9 K | 0.23 J/K/mol | –
8.4 K | 0.28 J/K/mol | –
8.9 K | 0.35 J/K/mol | –
9.5 K | 0.43 J/K/mol | –
10.1 K | 0.53 J/K/mol | –
10.8 K | 0.65 J/K/mol | –
11.5 K | 0.8 J/K/mol | –
12.2 K | 0.99 J/K/mol | –
13 K | 1.21 J/K/mol | –
13.9 K | 1.48 J/K/mol | –
14.8 K | 1.82 J/K/mol | –
15.7 K | 2.2 J/K/mol | –
16.7 K | 2.69 J/K/mol | –
17.8 K | 3.28 J/K/mol | –
19 K | 3.97 J/K/mol | –
20.2 K | 4.78 J/K/mol | –
21.5 K | 5.72 J/K/mol | –
22.9 K | 6.83 J/K/mol | –
24.3 K | 8.09 J/K/mol | –
25.9 K | 9.56 J/K/mol | –
27.6 K | 11.22 J/K/mol | –
29.3 K | 13.09 J/K/mol | –
31.2 K | 15.16 J/K/mol | –
33.3 K | 17.47 J/K/mol | –
35.4 K | 20.05 J/K/mol | –
37.7 K | 22.84 J/K/mol | –
40.2 K | 25.86 J/K/mol | –
42.7 K | 29.26 J/K/mol | –
45.5 K | 32.91 J/K/mol | –
48.4 K | 36.66 J/K/mol | –
51.6 K | 40.57 J/K/mol | –
54.9 K | 44.95 J/K/mol | –
58.4 K | 49.55 J/K/mol | –
62.2 K | 54.39 J/K/mol | –
66.2 K | 59.43 J/K/mol | –
70.4 K | 64.72 J/K/mol | –
75 K | 70.3 J/K/mol | –
79.8 K | 76.11 J/K/mol | –
84.9 K | 82.05 J/K/mol | –
90.4 K | 88.37 J/K/mol | –
96.2 K | 95.08 J/K/mol | –
102.4 K | 101.57 J/K/mol | –
115.9 K | 115.3 J/K/mol | –
123.4 K | 122.51 J/K/mol | –
131.3 K | 129.76 J/K/mol | –
139.7 K | 137.01 J/K/mol | –
148.6 K | 144.41 J/K/mol | –
158.2 K | 152.04 J/K/mol | –
168.3 K | 158.82 J/K/mol | –
179 K | 166.7 J/K/mol | –
190.5 K | 173.8 J/K/mol | –
201.5 K | 179.2 J/K/mol | –
203 K | 180.19 J/K/mol | –
203.6 K | 180.24 J/K/mol | –
205.7 K | 181.22 J/K/mol | –
207.7 K | 181.67 J/K/mol | –
209.7 K | 183.21 J/K/mol | –
211.7 K | 184.53 J/K/mol | –
213.8 K | 185.64 J/K/mol | –
215.8 K | 187.13 J/K/mol | –
217.8 K | 188.51 J/K/mol | –
219.8 K | 190.01 J/K/mol | –
221.8 K | 191.02 J/K/mol | –
223.8 K | 191.53 J/K/mol | –
225.9 K | 192.06 J/K/mol | –
227.9 K | 193.45 J/K/mol | –
229.9 K | 193.04 J/K/mol | –
231.9 K | 193.63 J/K/mol | –
233.9 K | 194.26 J/K/mol | –
235.9 K | 196.53 J/K/mol | –
238 K | 196.42 J/K/mol | –
240 K | 197.53 J/K/mol | –
242 K | 197.69 J/K/mol | –
244 K | 197.75 J/K/mol | –
246.1 K | 198.29 J/K/mol | –
248.1 K | 200 J/K/mol | –
250.1 K | 200.61 J/K/mol | –
252.1 K | 201.6 J/K/mol | –
254.1 K | 202.35 J/K/mol | –
256.1 K | 203.13 J/K/mol | –
258.1 K | 203.04 J/K/mol | 201.78 J/K/mol and 201.57 J/K/mol
260.2 K | 205.33 J/K/mol | –
262.2 K | 206.4 J/K/mol | –
264.2 K | 207.59 J/K/mol | –
266.2 K | 208.79 J/K/mol | –
268.2 K | 209.43 J/K/mol | –
268.3 K | – | 206.1 J/K/mol and 204.8 J/K/mol
270.2 K | 210.44 J/K/mol | –
272.2 K | 211.82 J/K/mol | –
274.3 K | 212.04 J/K/mol | –
276.3 K | 212.05 J/K/mol | –
278.3 K | 212.41 J/K/mol | –
278.5 K | – | 208.78 J/K/mol and 208.32 J/K/mol
280.3 K | 212.81 J/K/mol | –
282.3 K | 212.94 J/K/mol | –
284.3 K | 213.33 J/K/mol | –
286.3 K | 213.1 J/K/mol | –
288.3 K | 213.9 J/K/mol | –
288.7 K | – | 211.87 J/K/mol and 212.56 J/K/mol
290.4 K | 214.19 J/K/mol | –
292.4 K | 214.81 J/K/mol | –
294.4 K | 215.93 J/K/mol | –
296.4 K | 216.6 J/K/mol | –
298.4 K | 219.18 J/K/mol | –
298.9 K | – | 216.24 J/K/mol [middle of 10 runs]
300.4 K | 218.65 J/K/mol | –
309.1 K | – | 220.12 J/K/mol [middle of 11 runs]
319.4 K | – | 223.23 J/K/mol [middle of 9 runs]
329.6 K | – | 225.99 J/K/mol [middle of 11 runs]
339.8 K | – | 228.99 J/K/mol [middle of 10 runs]
350 K | – | 230.93 J/K/mol [middle of 11 runs]

Conditions | mass density [kg/m3]
[2] | 5206

Source: the NIST ThermoML archive (doi:10.1016/j.tca.2008.06.010)
